Results on 5 molecules are retold here after article PMC3634028, “Novel α-MSH Peptide Analogues with Broad Spectrum Antimicrobial Activity” (PLoS ONE, 2013).

Values after ≈ are worked out from the molar mass of the structure shown. Where a SMILES comes first, the peptide text is derived from it.

Data set [1] concerns HaCaT keratinocyte cell line. The experiment in a line: Cytotoxic activity, MTT colorimetric method. In kind it is cell-based, human. The settings on record: 24 h; for cell death / killing of human keratinocytes: highest peptide concentration used (100 µM). The procedure: Effects on viability was tested in the immortalised keratinocyte cell line HaCaT using the [3(4,5-dimethylthiazol-2yl)2,5-diphenyltetrazolium bromide] (MTT) colorimetric method in which the intensity of the dye is proportional to the number of viable cells. MTT is a tetrazolium salt which is reduced to a colored formazan product by mitochondrial reductases present only in metabolically active cells. Cells were cultured in Dulbecco's modified Eagle's medium (DMEM; Sigma) supplemented with 10% heat inactivated fetal bovine serum, glutamine (4 mM) and gentamicin. Afterwards, cells were plated in triplicate wells of a microtiter plate, at 4×10^4 cells/well in DMEM supplemented with 2% serum without antibiotic. After overnight incubation at 37°C in a 5% CO2 atmosphere, the medium was replaced with […] fresh DMEM supplemented with the peptides at different concentrations. The plate was incubated for 24 h at 37°C in a 5% CO2 atmosphere. Then, DMEM was removed and replaced with Hank's medium (136 mM NaCl; 4.2 mM Na2HPO4; 4.4 mM KH2PO4; 5.4 mM KCl; 4.1 mM NaHCO3, pH 7.2, supplemented with 20 mM D-glucose) containing 0.5 mg/ml MTT. After 4 h incubation, the formazan crystals were dissolved by adding 100 µl of acidified isopropanol and absorption of each well was measured using a microplate reader (Infinite M200; Tecan, Salzburg, Austria) at 570 nm. Cell viability was e expressed as percentage of viability in control cells (cells not treated with peptide).
Figure 1 Effects of the synthetic melanocortins on viability of HaCat cells. Cells were plated in wells of a microtiter plate, at 4×10^4 cells/well in DMEM supplemented with 2% serum without antibiotic. After overnight incubation at 37°C in a 5% CO2 atmosphere, the medium was replaced with 100 µl fresh DMEM supplemented with the peptides at different concentrations. […] Cell viability is expressed as percentage of viability in control cells (cells not treated with the peptide).
(In general: Tetrazolium dyes change colour on reduction, which living cells bring about.)

For data set [2], the system named is C. glabrata. Format: cell-based, Candida glabrata. The conditions noted are these: 48 h. How it is done: (§1) Two Candida albicans isolates were purchased from the ATCC (No. 24433 and 76615). The other yeast isolates were obtained from the collection of Fondazione Ca' Granda- Ospedale Maggiore Policlinico, Milano. The collection included C. albicans (7 isolates), C. glabrata (3 isolates), and C. krusei (3 isolates). Antifungal susceptibility testing was performed using the broth microdilution method according to the NCCLS M27-A guidelines (National Committee for Clinical Laboratory Standards. 1997, Reference method for broth dilution antifungal susceptibility testing of yeasts and approved standard NCCLS document M27-A. National Committee for Clinical Laboratory Standards, Wayne, Pa.). […] After 48 h of incubation, the plates were inspected for purity. A colony was taken from the agar plate and transferred into 5 mL Sabouraud-dextrose broth and incubated for 48 h at 35°C. Cells were centrifuged at 1,000× g for 10 min and the pellet was washed twice with distilled water. Cells were counted and suspended in RPMI 1640 medium buffered to pH 7.0 with 0.165 mol l^−1 morpholinepropanesulphonic acid (MOPS) buffer (Sigma) to obtain the two times test inoculum (1×10^3 to 5×10^3 CFU/mL). […] The MIC90, i.e. the minimum inhibitory concentrations endpoint were determined as 90% reduction in turbidity measured using a spectrophotometer (Titertek multiscan at 690 nm wave length).

The test system of data set [3] is Bacillus megaterium Bm11. In kind it is cell-based. The settings on record: Bacillus Bm11, 18 h. How it is done:
(§2) The strains used for the antimicrobial assays were the Gram-negative bacteria Acinetobacter baumani ATCC 19606, Escherichia coli D21, Pseudomonas aeruginosa ATCC 27853, and Pseudomonas syringae pv tabaci 1918NCPPB and the Gram-positive bacteria Bacillus megaterium Bm11, Staphylococcus aureus ATCC 25923, and Staphylococcus epidermidis ATCC 12228. Susceptibility testing was performed by adapting the microbroth dilution method outlined by the Clinical and Laboratory Standards Institute, using sterile 96-well plates (Falcon NJ, USA). The bacterial growth was aseptically measured by absorbance at 590 nm with a spectrophotometer (UV-1700 Pharma Spec Shimadzu, Tokyo, Japan). Afterwards, aliquots (50 µl) of bacteria in mid-log phase at a concentration of 2×10^6 colony-forming units (CFU)/mL in culture medium (Mueller-Hinton, MH) were added to 50 µl of MH broth containing the peptide in serial 2-fold dilutions ranging from 1.56 to 100 µM. Inhibition of microbial growth was determined by measuring the absorbance at 590 nm, after an incubation of 18 h at 37°C with a microplate reader (Infinite M200; Tecan, Salzburg, Austria).

For data set [4], the system named is Staphylococcus aureus ATCC 25923. In kind it is cell-based. The conditions noted are these: ATCC 25923, 18 h. The procedure: as §2
The subject of data set [5] is Acinetobacter baumani ATCC 19606. In kind it is cell-based. The conditions noted are these: ATCC 19606, 18 h. The procedure: as §2
The test system of data set [6] is Pseudomonas syringae pv tabaci 1918NCPPB. In kind it is cell-based. The settings on record: 18 h. The procedure: as §2
For data set [7], the system named is Pseudomonas aeruginosa ATCC 27853. Format: cell-based. The settings on record: ATCC 27853, 18 h. How it is done: as §2
The test system of data set [8] is Staphylococcus epidermidis ATCC 12228. Format: cell-based. The settings on record: ATCC 12228, 18 h. The procedure: as §2
The test system of data set [9] is Escherichia coli D21. Format: cell-based. The conditions noted are these: D21, 18 h. The procedure:
as §2

Data set [10] deals with C. krusei. Format: cell-based, Candida krusei. The settings on record: 48 h. How it is done: as §1
In data set [11] the test system is Candida strains (C. albicans, C. glabrata, C. krusei). Nature of the data set: Anti-Candida assay, overall result in words. In kind it is cell-based, Candida spp. The settings on record: standard culture conditions, broth culture medium. The procedure:
as §1

Data set [12] concerns C. albicans. Format: cell-based, Candida albicans. The conditions noted are these: 48 h. The procedure:
as §1

Turning to `CC(C)[C@H](NC(=O)[C@H](Cc1ccccc1)NC(=O)[C@H](CCCCN)NC(=O)[C@@H](NC(=O)[C@H](Cc1c[nH]c2ccccc12)NC(=O)[C@H](CCCNC(=N)N)NC(=O)[C@@H](Cc1ccc2ccccc2c1)NC(=O)[C@@H](N)Cc1c[nH]cn1)C(C)(C)C)C(N)=O` [Peptide 3, H-His-D(2′)Nal-Arg-Trp-tBuGly-Lys-Phe-Val-NH2] (HELM PEPTIDE1{H.[O=C([C@@H](Cc1ccc2ccccc2c1)N[*:1])[*:2]].R.W.[CC(C)(C)[C@H](N[*:1])C(=O)[*:2]].K.F.V.[am]}$$$$V2.0), in [1], the “cell death / killing of human keratinocytes” value (“cell death / killing” for short) was “less than 30%”. For the same molecule, the “MIC 90” value in data set [2], in data set [10] and in data set [12] was more than 100 µM in each case. In addition, the “MIC 100” value was 6.25 µM (≈ 7.38 µg/mL) in [3]; more than 100 µM in [4]; 100 µM (≈ 118 µg/mL) in data set [5]; more than 100 µM in [6]; 50 µM (≈ 59.1 µg/mL) in data set [7]; 50 µM (≈ 59.1 µg/mL) in data set [8]. Besides, the “MIC 100” value in [9] amounted to 50 µM (≈ 59.1 µg/mL). In data set [11], the “antimicrobial / anti-Candida activity (in words)” value is “inactive”.

Regarding `CC(C)[C@H](NC(=O)[C@H](Cc1ccccc1)NC(=O)[C@H](CCCCN)NC(=O)C1(NC(=O)[C@H](Cc2c[nH]c3ccccc23)NC(=O)[C@H](CCCNC(=N)N)NC(=O)[C@@H](Cc2ccc3ccccc3c2)NC(=O)[C@@H](N)Cc2c[nH]cn2)CC1)C(N)=O` [Peptide 4, H-His-D(2′)Nal-Arg-Trp-Ac3c-Lys-Phe-Val-NH2] (HELM PEPTIDE1{H.[O=C([C@@H](Cc1ccc2ccccc2c1)N[*:1])[*:2]].R.W.[O=C(C1(N[*:1])CC1)[*:2]].K.F.V.[am]}$$$$V2.0), in data set [1], the “cell death / killing” value was “less than 30%”. Also, the “MIC 90” value in [2], in data set [10] and in data set [12] was more than 100 µM throughout. The “MIC 100” value in data set [3] is given as 6.25 µM (≈ 7.2 µg/mL); in data set [4], 100 µM (≈ 115 µg/mL); in data set [5], 50 µM (≈ 57.6 µg/mL); in data set [6], more than 100 µM; in data set [7], 50 µM (≈ 57.6 µg/mL); in data set [8], 25 µM (≈ 28.8 µg/mL). Besides, in data set [9], the “MIC 100” value came out at 100 µM (≈ 115 µg/mL). In addition, the “antimicrobial / anti-Candida activity (in words)” value in data set [11] was “inactive”.

For `CC(C)[C@H](NC(=O)[C@H](Cc1ccccc1)NC(=O)[C@H](CCCCN)NC(=O)C1(NC(=O)[C@H](Cc2c[nH]c3ccccc23)NC(=O)[C@H](CCCNC(=N)N)NC(=O)[C@@H](Cc2ccc3ccccc3c2)NC(=O)[C@@H](N)Cc2c[nH]cn2)Cc2ccccc2C1)C(N)=O` [Peptide 8, H-His-D(2′)Nal-Arg-Trp-Aic-Lys-Phe-Val-NH2] (HELM PEPTIDE1{H.[O=C([C@@H](Cc1ccc2ccccc2c1)N[*:1])[*:2]].R.W.[O=C(C1(N[*:1])Cc2ccccc2C1)[*:2]].K.F.V.[am]}$$$$V2.0), the “cell death / killing” value in [1] is listed as 50–100%. For the same molecule, in data set [2], the “MIC 90” value stood at 100 µM (≈ 123 µg/mL). Also, the “MIC 100” value in [3] is 1.56 µM (≈ 1.91 µg/mL); in data set [4], 12.5 µM (≈ 15.3 µg/mL); in data set [5] it was 12.5 µM (≈ 15.3 µg/mL); in [6], 25 µM (≈ 30.7 µg/mL); in data set [7], 50 µM (≈ 61.4 µg/mL); in [8], 6.25 µM (≈ 7.67 µg/mL). In data set [9], the “MIC 100” value is given as 12.5 µM (≈ 15.3 µg/mL).

As to `CC(C)[C@H](NC(=O)[C@H](Cc1ccccc1)NC(=O)[C@H](CCCCN)NC(=O)[C@H](Cc1ccccc1)NC(=O)[C@H](Cc1c[nH]c2ccccc12)NC(=O)[C@H](CCCNC(=N)N)NC(=O)[C@@H](Cc1ccc2ccccc2c1)NC(=O)[C@@H](N)Cc1c[nH]cn1)C(N)=O` [Peptide 9, H-His-D(2′)Nal-Arg-Trp-Phe-Lys-Phe-Val-NH2] (HELM PEPTIDE1{H.[O=C([C@@H](Cc1ccc2ccccc2c1)N[*:1])[*:2]].R.W.F.K.F.V.[am]}$$$$V2.0), the “cell death / killing” value in [1] is listed as “less than 30%”. In addition, the “MIC 90” value in [2] and in [10] was more than 100 µM in each case. The “MIC 100” value turned out to be 3.125 µM (≈ 3.8 µg/mL) in data set [3]; 50 µM (≈ 60.8 µg/mL) in data set [4]; 25 µM (≈ 30.4 µg/mL) in data set [5]; 100 µM (≈ 122 µg/mL) in [6]; 25 µM (≈ 30.4 µg/mL) in data set [7]; 12.5 µM (≈ 15.2 µg/mL) in data set [8]. Besides, in [9], the “MIC 100” value came to 50 µM (≈ 60.8 µg/mL). Also, the “antimicrobial / anti-Candida activity (in words)” value in data set [11] is “decreased activity”.

As to `CC(C)[C@H](NC(=O)[C@H](Cc1ccccc1)NC(=O)[C@H](CCCCN)NC(=O)[C@H](CC1CCCCC1)NC(=O)[C@H](Cc1c[nH]c2ccccc12)NC(=O)[C@H](CCCNC(=N)N)NC(=O)[C@@H](Cc1ccc2ccccc2c1)NC(=O)[C@@H](N)Cc1c[nH]cn1)C(N)=O` [Peptide 10, H-His-D(2′)Nal-Arg-Trp-Cha-Lys-Phe-Val-NH2] (HELM PEPTIDE1{H.[O=C([C@@H](Cc1ccc2ccccc2c1)N[*:1])[*:2]].R.W.[Cha].K.F.V.[am]}$$$$V2.0), the “toxic effects on human keratinocytes (in words)” value in data set [1] (at 50–100 µM concentrations) is “exerted toxic effects”. In addition, in data set [1] (up to a concentration of 12.5 µM), the “toxic activity on human keratinocytes (in words)” value was “completely devoid of toxic activity”. Besides, the “MIC 90” value in data set [2] is on record as more than 100 µM. In addition, the “MIC 100” value amounted to 3.125 µM (≈ 3.82 µg/mL) in [3]; 12.5 µM (≈ 15.3 µg/mL) in data set [4]; 12.5 µM (≈ 15.3 µg/mL) in data set [5]; 25 µM (≈ 30.5 µg/mL) in data set [6]; 25 µM (≈ 30.5 µg/mL) in data set [7]; 6.25 µM (≈ 7.63 µg/mL) in data set [8]. Also, the “MIC 100” value in [9] was determined as 6.25 µM (≈ 7.63 µg/mL). Besides, the “antimicrobial / anti-Candida activity (in words)” value in data set [11] was “potency similar to that of peptide 8”.
